Data on two compounds can be found in publication PMC4281105 (Journal of medicinal chemistry, 2014).

A word on the EC50: it is the concentration giving half of the maximal effect.

In brackets after ≈: the same amount, converted by molar mass. Where two headings read alike, the source gives them in different places. Where only a bound is given, the exact number is not on record here.

The target of data set [1] is calcium channel, L-type, benzothiazepine (Rattus norvegicus, UniProt P22002). Put plainly: biochemical. The following applies: read-out: % Inh.
calcium channel, L-type, benzothiazepine, sequence (P22002 whole entry): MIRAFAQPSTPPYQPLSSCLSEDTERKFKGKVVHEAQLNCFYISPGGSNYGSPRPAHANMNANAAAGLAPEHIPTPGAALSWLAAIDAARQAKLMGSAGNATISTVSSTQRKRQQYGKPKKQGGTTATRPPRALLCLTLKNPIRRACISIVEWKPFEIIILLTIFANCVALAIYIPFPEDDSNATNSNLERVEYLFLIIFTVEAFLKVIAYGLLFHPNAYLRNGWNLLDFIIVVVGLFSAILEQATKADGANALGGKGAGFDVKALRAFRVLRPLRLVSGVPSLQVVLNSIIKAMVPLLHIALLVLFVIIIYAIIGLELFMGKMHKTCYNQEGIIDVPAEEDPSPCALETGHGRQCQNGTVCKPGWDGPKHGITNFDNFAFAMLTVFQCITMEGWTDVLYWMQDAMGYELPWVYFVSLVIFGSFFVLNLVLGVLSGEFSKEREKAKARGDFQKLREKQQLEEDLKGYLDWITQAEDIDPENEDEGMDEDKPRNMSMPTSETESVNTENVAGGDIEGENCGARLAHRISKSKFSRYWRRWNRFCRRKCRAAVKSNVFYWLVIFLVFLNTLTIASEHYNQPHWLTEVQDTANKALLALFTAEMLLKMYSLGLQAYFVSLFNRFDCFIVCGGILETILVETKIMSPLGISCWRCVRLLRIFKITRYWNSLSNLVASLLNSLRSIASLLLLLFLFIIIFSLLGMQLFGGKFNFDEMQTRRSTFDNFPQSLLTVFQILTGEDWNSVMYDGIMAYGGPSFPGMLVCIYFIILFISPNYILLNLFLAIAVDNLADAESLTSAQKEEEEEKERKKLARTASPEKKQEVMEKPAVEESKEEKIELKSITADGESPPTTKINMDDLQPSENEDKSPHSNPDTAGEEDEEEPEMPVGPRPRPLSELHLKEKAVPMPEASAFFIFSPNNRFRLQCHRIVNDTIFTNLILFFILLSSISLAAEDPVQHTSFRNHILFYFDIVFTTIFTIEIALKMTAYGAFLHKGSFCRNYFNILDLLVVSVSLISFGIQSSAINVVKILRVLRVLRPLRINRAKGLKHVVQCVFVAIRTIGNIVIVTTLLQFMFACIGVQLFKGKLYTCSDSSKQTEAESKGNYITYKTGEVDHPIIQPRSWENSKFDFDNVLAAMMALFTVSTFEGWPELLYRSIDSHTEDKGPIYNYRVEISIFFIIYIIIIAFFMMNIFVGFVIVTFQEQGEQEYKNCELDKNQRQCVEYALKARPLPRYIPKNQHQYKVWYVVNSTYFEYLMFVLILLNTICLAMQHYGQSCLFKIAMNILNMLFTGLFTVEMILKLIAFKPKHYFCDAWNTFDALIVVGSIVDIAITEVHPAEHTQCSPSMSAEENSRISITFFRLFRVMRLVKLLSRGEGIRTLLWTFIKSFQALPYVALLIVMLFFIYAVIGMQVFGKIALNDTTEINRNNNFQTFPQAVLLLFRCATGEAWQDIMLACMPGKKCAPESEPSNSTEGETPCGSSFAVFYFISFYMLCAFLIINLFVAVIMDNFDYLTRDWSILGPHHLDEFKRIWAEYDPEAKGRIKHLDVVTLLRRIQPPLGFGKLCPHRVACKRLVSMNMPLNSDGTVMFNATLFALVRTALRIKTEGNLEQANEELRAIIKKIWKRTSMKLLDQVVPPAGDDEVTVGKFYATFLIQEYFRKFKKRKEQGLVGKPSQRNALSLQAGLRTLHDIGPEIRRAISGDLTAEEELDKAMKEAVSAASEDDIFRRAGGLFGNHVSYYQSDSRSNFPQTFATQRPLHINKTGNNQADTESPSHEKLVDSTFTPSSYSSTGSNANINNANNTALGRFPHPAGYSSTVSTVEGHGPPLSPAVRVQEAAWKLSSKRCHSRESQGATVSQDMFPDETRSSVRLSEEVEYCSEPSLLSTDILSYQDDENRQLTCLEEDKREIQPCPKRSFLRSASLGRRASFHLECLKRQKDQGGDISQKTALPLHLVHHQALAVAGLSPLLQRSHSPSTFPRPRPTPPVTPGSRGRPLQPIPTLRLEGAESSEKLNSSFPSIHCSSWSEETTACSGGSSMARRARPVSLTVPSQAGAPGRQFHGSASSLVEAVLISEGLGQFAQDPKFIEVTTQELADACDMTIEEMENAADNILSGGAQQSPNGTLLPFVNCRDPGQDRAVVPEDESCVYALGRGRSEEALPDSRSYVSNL
The target in data set [2] is calcium channel, L-type, dihydropyridine (Rattus norvegicus, UniProt P22002). As to the kind of experiment: Panlabs 214600 radioligand binding. The following applies: read-out: % Inh.
calcium channel, L-type, dihydropyridine, sequence (P22002 whole entry): as above
For a further data set, the system named is hRSV strain Long. Put plainly: hRSV CPE assay. The format is cell-based, human respiratory syncytial virus.
For a further data set, the system named is recMeV-luciferase. As to the kind of experiment: recMeV-luciferase assay. The format is cell-based, measles virus. The following applies: luciferase readout, reporter interference control.
For the next data set, the system named is RSV. Put plainly: viral titer. The format is cell-based, human respiratory syncytial virus.
For another data set, the system named is recRSV-luciferase. As to the kind of experiment: recRSV-luciferase assay. It counts as cell-based, respiratory syncytial virus. Conditions: luciferase readout.
In data set [3] the test system is Fa2N-4 immortalized human hepatocytes. The following applies: read-out: hepatocyte toxicity LC50.
Assay in data set [4]: not given
The source holds these as a separate data set.

The conditions of data set [5]: for Pe, PAMPA permeability: PBS, no additives.

In the case of `COCCCNC(=O)c1ccc(Cn2c(=O)c3ccccc3n(Cc3ccc(C(C)C)cc3)c2=O)cc1` [Compound 19, 4-((1-(4-isopropylbenzyl)-2,4-dioxo-1,2-dihydroquinazolin-3(4H)-yl)methyl)-N-(3-methoxypropyl)benzamide], the results for the inhibition at 10 µM in data set [1] and in data set [2] were 52% and 70%, respectively. For the same compound, the concentration giving a half-maximal response (EC50) in the data set with hRSV strain Long (human respiratory syncytial virus, HEp-2, read-out: RSV CPE potency ± standard deviation EC50, HEp-2 cells, hRSV strain Long, 10-point dose response) is 300 ± 30 nM; with hRSV strain Long (human respiratory syncytial virus, RSV CPE, as given in abstract), 300 to 500 nM. Further, the “activity against recMeV-luciferase” value with recMeV-luciferase was “inactive”. Also, in the data set on RSV (human respiratory syncytial virus, read-out: viral titer reduction at 10 µM), the log reduction at 10 µM worked out at 6.7. Moreover, in the data set on recRSV-luciferase, the “inhibition of recRSV-luciferase” value was “efficiently inhibited”.
As for `CN(C)c1ccc(Cn2c(=O)n(Cc3ccc(C(=O)NCC4COC4)cc3)c(=O)c3ccccc32)cc1` [Compound 46, 4-((1-(4-(dimethylamino)benzyl)-2,4-dioxo-1,2-dihydroquinazolin-3(4H)-yl)methyl)-N-(oxetan-3-ylmethyl)-benzamide], the “aqueous stability, 1:1 PBS/ACN” value (percent parent remaining after 48 h in 1:1 PBS and acetonitrile) was determined as 100%. Moreover, the “aqueous stability, PBS” value (percent parent remaining after 48 h in PBS) came out at 90.2%. For the same compound, the CC50 in data set [3] is above 50000 nM. Moreover, the “selectivity index (CC50/EC50)” value in the data set with hRSV strain Long (HEp-2 CC50 / RSV CPE EC50) turned out to be 41.8. The EC50 in the data set on hRSV strain Long (read-out: RSV CPE potency ± standard deviation EC50, HEp-2 cells, hRSV strain Long, 10-point dose response) was 1100 ± 200 nM. Moreover, in data set [4] (kinetic solubility in 1× PBS, pH 7.4), the “solubility, PBS” value was 11.2 µM (≈ 5.58 µg/mL). Moreover, the “solubility, media” value in data set [4] (kinetic solubility in CPE assay media (DMEM/F12, Pen/Strep/Glutamine, 2% heat inactivated FBS)) came out at 18.5 µM (≈ 9.22 µg/mL). Besides, the “viral titer reduction at 10 µM” value in the data set with RSV (compound at 10 µM) was above 6.2 log. For the same compound, the “passive permeability in words” value in data set [5] (at each of 3 pH levels) is given as “Moderate to good”. For the same compound, the “Pe, PAMPA permeability” value in [5] (donor pH 5.0, acceptor pH 7.4) came to 780 ×10⁻⁶ cm/s; in data set [5] (donor pH 6.2, acceptor pH 7.4), 686 ×10⁻⁶ cm/s; in data set [5] (donor pH 7.4, acceptor pH 7.4), 514 ×10⁻⁶ cm/s.
